Assay results taken from PubChem BioAssay AID1259407 (Chemical Carcinogenesis Research Information System (CCRIS), 2018).
Active and inactive are the calls of the source. The rule behind the calls is not given here.

Test system: CCRIS mutagenicity, Ames/micronucleus/aberration tests
Experiment: CCRIS mutagenicity studies
[1] = Test System: AMES SALMONELLA TYPHIMURIUM, Strain/Indicator: TA98, Metabolic Activation: HAMSTER, LIVER, S-9, AROCLOR 1254 (10%), Method: PREINCUBATION
[2] = Test System: AMES SALMONELLA TYPHIMURIUM, Strain/Indicator: TA98, Metabolic Activation: NONE, Method: PREINCUBATION
[3] = Test System: AMES SALMONELLA TYPHIMURIUM, Strain/Indicator: TA98, Metabolic Activation: RAT, LIVER, S-9, AROCLOR 1254 (10%), Method: PREINCUBATION
[4] = Test System: AMES SALMONELLA TYPHIMURIUM, Strain/Indicator: TA100, Metabolic Activation: HAMSTER, LIVER, S-9, AROCLOR 1254 (10%), Method: PREINCUBATION
[5] = Test System: AMES SALMONELLA TYPHIMURIUM, Strain/Indicator: TA100, Metabolic Activation: NONE, Method: PREINCUBATION
[6] = Test System: AMES SALMONELLA TYPHIMURIUM, Strain/Indicator: TA100, Metabolic Activation: RAT, LIVER, S-9, AROCLOR 1254 (10%), Method: PREINCUBATION
[7] = Test System: AMES SALMONELLA TYPHIMURIUM, Strain/Indicator: TA1535, Metabolic Activation: HAMSTER, LIVER, S-9, AROCLOR 1254 (10%), Method: PREINCUBATION
[8] = Test System: AMES SALMONELLA TYPHIMURIUM, Strain/Indicator: TA1535, Metabolic Activation: NONE, Method: PREINCUBATION
[9] = Test System: AMES SALMONELLA TYPHIMURIUM, Strain/Indicator: TA1535, Metabolic Activation: RAT, LIVER, S-9, AROCLOR 1254 (10%), Method: PREINCUBATION
[10] = Test System: AMES SALMONELLA TYPHIMURIUM, Strain/Indicator: TA1537, Metabolic Activation: NONE, Method: PREINCUBATION
[11] = Test System: AMES SALMONELLA TYPHIMURIUM, Strain/Indicator: TA98, Metabolic Activation: NONE, Method: STANDARD PLATE
[12] = Test System: AMES SALMONELLA TYPHIMURIUM, Strain/Indicator: TA100, Metabolic Activation: NONE, Method: STANDARD PLATE

## CCCC(C)(COC(N)=O)COC(=O)NC(C)C (configuration not stated)
[1]
  mutagenic call: inactive; negative
[2]
  mutagenic call: inactive; negative
[3]
  mutagenic call: inactive; negative
[4]
  mutagenic call: inactive; negative
[5]
  mutagenic call: inactive; negative
[6]
  mutagenic call: inactive; negative
[7]
  mutagenic call: inactive; negative
[8]
  mutagenic call: inactive; negative
[9]
  mutagenic call: inactive; negative
Test System: AMES SALMONELLA TYPHIMURIUM, Strain/Indicator: TA1537, Metabolic Activation: HAMSTER, LIVER, S-9, AROCLOR 1254 (10%), Method: PREINCUBATION
  mutagenic call: inactive; negative
[10]
  mutagenic call: inactive; negative
Test System: AMES SALMONELLA TYPHIMURIUM, Strain/Indicator: TA1537, Metabolic Activation: RAT, LIVER, S-9, AROCLOR 1254 (10%), Method: PREINCUBATION
  mutagenic call: inactive; negative

## Cc1c(/C=N/OCc2ccc(Cl)cc2Cl)c2cc([N+](=O)[O-])ccc2n1Cc1ccc(Cl)cc1
[11]
  mutagenic call: inactive; negative
Test System: AMES SALMONELLA TYPHIMURIUM, Strain/Indicator: TA98, Metabolic Activation: RAT, LIVER, S-9, PHENOBARBITAL AND BETA-NAPHTHOFLAVONE, Method: STANDARD PLATE
  mutagenic call: inactive; negative
[12]
  mutagenic call: inactive; negative
Test System: AMES SALMONELLA TYPHIMURIUM, Strain/Indicator: TA100, Metabolic Activation: RAT, LIVER, S-9, PHENOBARBITAL AND BETA-NAPHTHOFLAVONE, Method: STANDARD PLATE
  mutagenic call: inactive; negative

## Nc1ccn([C@@H]2O[C@H](CO)[C@@H](O)C2(F)F)c(=O)n1
End Point: CHROMOSOMAL ABERRATIONS, Test System: BONE MARROW, Species: MOUSE, Strain/Sex: SWISS/MALE, FEMALE, Route: INTRAPERITONEAL
  mutagenic call: active; positive (structural changes)
End Point: IN VITRO CHROMOSOMAL ABERRATIONS, Test System: HUMAN PERIPHERAL LYMPHOCYTES, Metabolic Activation: NONE
  mutagenic call: active; positive; (structural changes: breaks, fragments)
End Point: IN VITRO CHROMOSOMAL ABERRATIONS, Test System: HUMAN PERIPHERAL LYMPHOCYTES, Strain/Sex: MALE, FEMALE, Metabolic Activation: NONE
  mutagenic call: active; positive (structural changes)
End Point: MICRONUCLEUS, Test System: BONE MARROW, Species: MOUSE, Strain/Sex: SWISS/MALE, FEMALE, Route: INTRAPERITONEAL
  mutagenic call: active; positive

## CCCCOc1cc([N+](=O)[O-])ccc1C(=O)NOC(C)=O
[12]
  mutagenic call: active; positive
Test System: AMES SALMONELLA TYPHIMURIUM, Strain/Indicator: TA100, Metabolic Activation: RAT S9, AROCLOR, Method: STANDARD PLATE
  mutagenic call: active; positive

## CC(=O)Nc1ccccc1N
Test System: AMES SALMONELLA TYPHIMURIUM, Strain/Indicator: TA97, Metabolic Activation: HAMSTER, LIVER, S-9, AROCLOR 1254 (10%), Method: PREINCUBATION
  mutagenic call: active; positive
Test System: AMES SALMONELLA TYPHIMURIUM, Strain/Indicator: TA97, Metabolic Activation: NONE, Method: PREINCUBATION
  mutagenic call: active; positive
Test System: AMES SALMONELLA TYPHIMURIUM, Strain/Indicator: TA97, Metabolic Activation: RAT, LIVER, S-9, AROCLOR 1254 (10%), Method: PREINCUBATION
  mutagenic call: active; positive
[1]
  mutagenic call: active; positive
[2]
  mutagenic call: inactive; negative
[3]
  mutagenic call: active; positive
[4]
  mutagenic call: active; positive
[5]
  mutagenic call: inactive; negative
[6]
  mutagenic call: active; positive
[7]
  mutagenic call: active; positive
[8]
  mutagenic call: inactive; negative
[9]
  mutagenic call: active; positive

## Nc1ccc(O)c2c1C(=O)c1ccccc1C2=O
Test System: AMES SALMONELLA TYPHIMURIUM, Strain/Indicator: TA98, Metabolic Activation: RAT, LIVER, S-9, AROCLOR 1254, Method: STANDARD PLATE
  mutagenic call: inactive; negative
[12]
  mutagenic call: inactive; negative
Test System: AMES SALMONELLA TYPHIMURIUM, Strain/Indicator: TA100, Metabolic Activation: RAT, LIVER, S-9, AROCLOR 1254, Method: STANDARD PLATE
  mutagenic call: inactive; negative
Test System: AMES SALMONELLA TYPHIMURIUM, Strain/Indicator: TA1535, Metabolic Activation: NONE, Method: STANDARD PLATE
  mutagenic call: inactive; negative
Test System: AMES SALMONELLA TYPHIMURIUM, Strain/Indicator: TA1535, Metabolic Activation: RAT, LIVER, S-9, AROCLOR 1254, Method: STANDARD PLATE
  mutagenic call: inactive; negative
Test System: AMES SALMONELLA TYPHIMURIUM, Strain/Indicator: TA1537, Metabolic Activation: NONE, Method: STANDARD PLATE
  mutagenic call: active; positive
Test System: AMES SALMONELLA TYPHIMURIUM, Strain/Indicator: TA1537, Metabolic Activation: RAT, LIVER, S-9, AROCLOR 1254, Method: STANDARD PLATE
  mutagenic call: active; positive
Test System: AMES SALMONELLA TYPHIMURIUM, Strain/Indicator: TA1538, Metabolic Activation: RAT, LIVER, S-9, AROCLOR 1254, Method: STANDARD PLATE
  mutagenic call: inactive; negative

## C[n+]1c2ccccc2cc2ccc(N)cc21
[8]
  mutagenic call: inactive; negative
Test System: AMES SALMONELLA TYPHIMURIUM, Strain/Indicator: TA1535, Metabolic Activation: RAT, LIVER, S-9, TETRACHLOROBIPHENYL, Method: PREINCUBATION
  mutagenic call: inactive; negative
[10]
  mutagenic call: active; positive
Test System: AMES SALMONELLA TYPHIMURIUM, Strain/Indicator: TA1537, Metabolic Activation: RAT, LIVER, S-9, TETRACHLOROBIPHENYL, Method: PREINCUBATION
  mutagenic call: active; positive
Test System: AMES SALMONELLA TYPHIMURIUM, Strain/Indicator: TA1538, Metabolic Activation: NONE, Method: PREINCUBATION
  mutagenic call: inactive; negative
Test System: AMES SALMONELLA TYPHIMURIUM, Strain/Indicator: TA1538, Metabolic Activation: RAT, LIVER, S-9, TETRACHLOROBIPHENYL, Method: PREINCUBATION
  mutagenic call: active; positive
Test System: AMES SALMONELLA TYPHIMURIUM, Strain/Indicator: TA1977, Metabolic Activation: NONE, Method: PREINCUBATION
  mutagenic call: active; positive
Test System: AMES SALMONELLA TYPHIMURIUM, Strain/Indicator: TA1977, Metabolic Activation: RAT, LIVER, S-9, TETRACHLOROBIPHENYL, Method: PREINCUBATION
  mutagenic call: active; positive
Test System: AMES SALMONELLA TYPHIMURIUM, Strain/Indicator: TA1978, Metabolic Activation: RAT, LIVER, S-9, TETRACHLOROBIPHENYL, Method: PREINCUBATION
  mutagenic call: inactive; negative

## CC(=O)OC[C@]12CCC(C)=C[C@H]1O[C@@H]1[C@H](O)[C@@H](OC(C)=O)[C@@]2(C)[C@]12CO2
Test System: AMES SALMONELLA TYPHIMURIUM, Strain/Indicator: TA98, Metabolic Activation: RAT, LIVER, MICROSOMES, PHENOBARBITAL, Method: STANDARD PLATE
  mutagenic call: inactive; negative
[12]
  mutagenic call: inactive; negative
Test System: AMES SALMONELLA TYPHIMURIUM, Strain/Indicator: TA100, Metabolic Activation: RAT, LIVER, MICROSOMES, PHENOBARBITAL, Method: STANDARD PLATE
  mutagenic call: inactive; negative

## O=[N+]([O-])c1ccc2c(c1)Cc1cccc(O)c1-2
[2]
  mutagenic call: active; positive
Test System: AMES SALMONELLA TYPHIMURIUM, Strain/Indicator: TA98, Metabolic Activation: S-9, Method: PREINCUBATION
  mutagenic call: active; positive

## ClCc1ccccc1CCl
[11]
  mutagenic call: inactive; negative
